Laboratory results reported in patent US7767659B2, “Synthesis of naturally occurring ecteinascidins and related compounds” (Pharma Mar, S.A., priority 2002, dated 2010).
Where two headings read alike, the source gives them in different places.

Tests used:
LNCaP = assay: Inhibition of cells growth by colorimetric assay (SRB); settings: for GI50: read-out: GI50 LNCAP; for CC50: read-out: LC50 LNCAP
Summary of the method: (§1)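 Colorimetric SRB read (490 nm) on triplicate wells after 48 h at 37 °C, 5% CO2. Dose range 10 to 10^−8 μg/ml; 5×10^3 cells/well pre-attached 18 h.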

DU-145 = assay: as above; settings: for GI50: read-out: GI50 DU145; for CC50: read-out: LC50 DU145
Summary of the method: as §1

SK-MEL-28 = assay: as above; settings: for GI50: read-out: GI50 MEL-28; for CC50: read-out: LC50 MEL-28
Summary of the method: as §1

SK-BR-3 = assay: as above; settings: for GI50: read-out: GI50 SK-BR3; for CC50: read-out: LC50 SK-BR3
Summary of the method: as §1

HeLa = assay: as above; settings: for GI50: read-out: GI50 HELA; for CC50: read-out: LC50 HELA
Summary of the method: as §1

IGROV-ET = assay: as above; settings: for GI50: read-out: GI50 IGROV-ET; for CC50: read-out: LC50 IGROV-ET
Summary of the method: as §1

PANC-1 = assay: as above; settings: for GI50: read-out: GI50 PANC-1; for CC50: read-out: LC50 PANC-1
Summary of the method: as §1

IGROV-1 = assay: as above; settings: for GI50: read-out: GI50 IGROV; for CC50: read-out: LC50 IGROV
Summary of the method: as §1

K-562 = assay: as above; settings: for GI50: read-out: GI50 K562; for CC50: read-out: LC50 K562
Summary of the method: as §1

LoVo-Dox = assay: as above; settings: for GI50: read-out: GI50 LOVO-DOX; for CC50: read-out: LC50 LOVO-DOX
Summary of the method: as §1

HeLa-APL = assay: as above; settings: for CC50: read-out: LC50 HELA-APL
Summary of the method: as §1

LoVo = assay: cells; settings: for GI50: read-out: GI50 LOVO; for CC50: read-out: LC50 LOVO
Summary of the method: as §1

HT-29 = assay: cells; settings: for GI50: read-out: GI50 HT29; for CC50: read-out: LC50 HT29
Summary of the method: as §1

A-549 = assay: cells; settings: for GI50: read-out: GI50 A549; for CC50: read-out: LC50 A549
Summary of the method: as §1

[1] = IGROV-ET, SRB, 48 hours exposure
[2] = LOVO-DOX, SRB, 48 hours exposure
[3] = HELA-APL, SRB, 48 hours exposure

## C=CCN1[C@@H]2c3c(cc(C)c(OC)c3O)C[C@H]1[C@H](C#N)N1C2[C@@H]2SCC(NC(=O)CCCCCCCCCCCCCCC)C(=O)OC[C@H]1c1c3c(c(C)c(OC(C)=O)c12)OCO3 (stereo partly shown) [compound 26]
LNCaP; Homo sapiens, LNCaP, 48 h
  GI50: 3.82 µM
  CC50: 11.6 µM
LNCaP; Homo sapiens, LNCaP, 48 h, read-out: TGI LNCAP
  IC (TGI): 11.6 µM
DU-145; Homo sapiens, DU-145, 48 h
  GI50: 11.6 µM
  CC50: 11.6 µM
DU-145; Homo sapiens, DU-145, 48 h, read-out: TGI DU145
  IC (TGI): 11.6 µM
SK-MEL-28; Homo sapiens, SK-MEL-28, 48 h
  GI50: 11.6 µM
  CC50: 11.6 µM
SK-MEL-28; Homo sapiens, SK-MEL-28, 48 h, read-out: TGI MEL-28
  IC (TGI): 11.6 µM
SK-BR-3; Homo sapiens, SK-BR-3, 48 h
  GI50: 4.23 µM
  CC50: 11.6 µM
SK-BR-3; Homo sapiens, SK-BR-3, 48 h, read-out: TGI SK-BR3
  IC (TGI): 9.2 µM
HeLa; Homo sapiens, HeLa, 48 h
  GI50: 11.6 µM
  CC50: 11.6 µM
HeLa; Homo sapiens, HeLa, 48 h, read-out: TGI HELA
  IC (TGI): 11.6 µM
IGROV-ET; Homo sapiens, 48 h
  GI50: 11.6 µM
  CC50: 11.6 µM
IGROV-ET; Homo sapiens, 48 h, read-out: TGI IGROV-ET
  IC (TGI): 11.6 µM
PANC-1; Homo sapiens, PANC-1, 48 h
  GI50: 11.6 µM
  CC50: 11.6 µM
PANC-1; Homo sapiens, PANC-1, 48 h, read-out: TGI PANC-1
  IC (TGI): 11.6 µM
IGROV-1; Homo sapiens, IGROV-1, 48 h
  GI50: 6.84 µM
  CC50: 11.6 µM
IGROV-1; Homo sapiens, IGROV-1, 48 h, read-out: TGI IGROV
  IC (TGI): 11.6 µM
K-562; Homo sapiens, K562, 48 h
  GI50: 2.3 µM
  CC50: 10.6 µM
K-562; Homo sapiens, K562, 48 h, read-out: TGI K562
  IC (TGI): 4.94 µM
LoVo-Dox; Homo sapiens, 48 h
  GI50: 11.6 µM
  CC50: 11.6 µM
LoVo-Dox; Homo sapiens, 48 h, read-out: TGI LOVO-DOX
  IC (TGI): 11.6 µM
HeLa-APL; Homo sapiens, 48 h
  CC50: 11.6 µM
LoVo; Homo sapiens, LoVo, 48 h
  GI50: 11.6 µM
  CC50: 11.6 µM
LoVo; Homo sapiens, LoVo, 48 h, read-out: TGI LOVO
  IC (TGI): 11.6 µM
HT-29; Homo sapiens, HT-29, 48 h
  GI50: 11.6 µM
  CC50: 11.6 µM
HT-29; Homo sapiens, HT-29, 48 h, read-out: TGI HT29
  IC (TGI): 11.6 µM
A-549; Homo sapiens, A549, 48 h
  GI50: 11.6 µM
  CC50: 11.6 µM
A-549; Homo sapiens, A549, 48 h, read-out: TGI A549
  IC (TGI): 11.6 µM

## C=CCN1C2Cc3cc(C)c(OC)c(O)c3C1C1C3SCC(NC(=O)CC)C(=O)OCC(c4c5c(c(C)c(OC(C)=O)c43)OCO5)N1C2C#N (stereo not shown) [compound 27]
LNCaP; LNCAP, SRB, 48 hours exposure
  TGI LNCAP: 6.46E−08 Molar
  GI50: 0.0261 µM
  CC50: 0.261 µM
DU-145; DU145, SRB, 48 hours exposure
  TGI DU145: 8.48E−07 Molar
  GI50: 0.0755 µM
  CC50: 14.2 µM
SK-MEL-28; MEL-28, SRB, 48 hours exposure
  TGI MEL-28: 1.34E−07 Molar
  GI50: 0.0614 µM
  CC50: 0.594 µM
SK-BR-3; SK-BR3, SRB, 48 hours exposure
  TGI SK-BR3: 1.97E−07 Molar
  GI50: 0.0558 µM
  CC50: 1.05 µM
HeLa; HELA, SRB, 48 hours exposure
  TGI HELA: 2.75E−07 Molar
  GI50: 0.0978 µM
  CC50: 0.786 µM
IGROV-ET; [1]
  TGI IGROV-ET: 3.87E−07 Molar
  GI50: 0.165 µM
  CC50: 0.915 µM
PANC-1; PANC-1, SRB, 48 hours exposure
  TGI PANC-1: 1.45E−06 Molar
  GI50: 0.0928 µM
  CC50: 14.2 µM
IGROV-1; IGROV, SRB, 48 hours exposure
  TGI IGROV: 1.02E−07 Molar
  GI50: 0.0407 µM
  CC50: 1.02 µM
K-562; K562, SRB, 48 hours exposure
  TGI K562: 5.66E−08 Molar
  GI50: 0.0217 µM
  CC50: 0.206 µM
LoVo-Dox; [2]
  TGI LOVO-DOX: 1.42E−05 Molar
  GI50: 0.431 µM
  CC50: 14.2 µM
HeLa-APL; [3]
  TGI HELA-APL: 3.04E−07 Molar
  CC50: 0.951 µM
HeLa-APL; read-out: GI50 HELA-APL, HELA-APL, SRB, 48 hours exposure
  GI50: 0.0951 µM
LoVo; LOVO, SRB, 48 hours exposure
  TGI LOVO: 2.36E−07 Molar
  GI50: 0.0804 µM
  CC50: 0.707 µM
HT-29; HT29, SRB, 48 hours exposure
  TGI HT29: 1.42E−06 Molar
  GI50: 0.0756 µM
  CC50: 14.2 µM
A-549; A549, SRB, 48 hours exposure
  TGI A549: 2.06E−07 Molar
  GI50: 0.0626 µM
  CC50: 1.89 µM
